# Literature values as cited in patent US6399047B1, “Benzoxazole derivatives for use in cosmetic compositions and for stabilizing synthetic polymers” (3V Sigma S.p.A., priority 2000, dated 2002).
# What was measured:
# [1] = background statement
# [2] = background statement; remark: listed apart in the source
structure (smiles),measurement,setting,value
COc1ccc(C(=O)c2ccccc2)c(O)c1 [2-Hydroxy-4-methoxybenzophenone],maximum absorption in the UV-A zone,[1],about 325 nm
same,solubility in solvents usually used in cosmetics,[2],very low
